Consider four compounds from patent publication US20240390465A1, “Endostatin Peptides for the Treatment of Tumors, Fibrosis and Acute Lung Injury” (MUSC Foundation for Research Development, priority 2021, published 2024).

Data set [1] deals with TRAMP C-2 mouse prostate tumor cells. In words: Prostate tumor growth in mice, peptide by oral gavage. Type of data set: in vivo. The note with it: C57BL6 mice, TRAMP C-2 tumors, 50 μg/dose oral gavage twice per week, vs water control. As to the method: (§1) For each of the experiments, descriptive statistics (means and standard deviations) for tumor volumes were calculated over time for each experimental group (i.e. Experiment 1: Control vs. BioE4 (FIG. 1); Experiment 2: PBS, Bio96, and BioE4-03 (FIG. 5)). Since tumor growth tends to be curvilinear, general linear mixed models (GLMMs) were created to estimate treatment-specific growth curves over time and to make comparisons between the peptide treatments and control. Separate GLMMs were constructed for each experiment, and each GLMM included random effects for each mouse, to control for the fact that the repeated volume measurements within a given mouse were correlated with one another. Tumor volume served as the dependent variable in each model, while time (in days), time^2, treatment, treatment×time, and treatment×time^2 were included as independent variables. Using these models, the estimated mean tumor volumes at specific selected time points and the mean rate of change in the tumor volumes at specific selected time points were compared. If a mouse's tumor grew too large, it was sacrificed; however, all tumor volumes measured prior to sacrifice were included in the modeling process. […]
Two groups of wild type C57BL6 mice from Jax Labs were injected with TRAMP C-2 mouse prostate tumor cells in the right flank. […] Tumors were measured 3 times/week. […]

Data set [2] relates to fibroblasts from lungs of patients with systemic sclerosis (SSc). Description: SMA and Collagen 1A2 RNA in SSc lung fibroblasts. Type of data set: cell-based, human. As to the method:
Fibroblasts were treated with TGFbeta with or without peptide Bio96-17 for 48 hours. RNA was extracted and levels of alpha smooth muscle actin (SMA) measured by qRT-PCR.
SSc fibroblasts were treated with 10 μg/ml BioE4-03 for 72 hours. RNA was extracted and used to measure SMA and Collagen 1A2.

Data set [3] concerns fibroblasts from lungs of patients with Idiopathic Pulmonary Fibrosis (IPF). Description: SMA and Collagen 1A2 RNA in IPF lung fibroblasts. The settings on record: IPF lung fibroblasts (FIG. 17). It is filed as cell-based, human.
For data set [4], the system named is tumors. Description: Histologic analysis of tumors (H&E, Masson Trichrome). It is filed as in vivo, mouse. As to the method:
Histological analysis of tumors treated with vehicle alone, or with BioE4-03 or Bio96 peptides was performed.

Data set [5] has as its system me-38 colon adenocarcinoma tumor cells. Description: Colon adenocarcinoma tumor growth in mice, peptide by oral gavage. The note with it: sMIC tolerant transgenic mice, 100 μg/mouse oral gavage twice/week. Type of data set: in vivo. As to the method: as §1, with “Tumor volume served as the dependent variable in each model, while time (in days), time^2, treatment, treatment×time, and treatment×time^2 were included as independent variables. Using these models, the estimated mean tumor volumes at specific selected time points and the mean rate of change in the tumor volumes at specific selected time points were compared.” left out
sMIC tolerant transgenic (MB481 strain) mice (Liu et al, Perturbation of NK cell peripheral homeostasis accelerates prostate carcinoma metastasis. J. Clin. Invest. 123:4410, 2013) were injected with 1×10^5 me-38 colon adenocarcinoma tumor cells via subcutaneous injection When tumor size reached approximately 75 mm^3, treatment was started. start treatment at four group. […] Tumor volume was measured 3 times per week. […]

Residues, ends and D or L forms follow the SMILES beside them. *: point of attachment. Biotin = O=C1N[C@H]2[C@H](CS[C@H]2CCCCC(=O)*)N1; Ahx = NCCCCCC(=O)O

As to “Biotin-SYCETWRTEAPSATGQASSLLGGRLLGQSAASCHHAYIVLCIENSFMT-NH2 (cysteines drawn unpaired) [BioE4]”, in data set [1], the “mean rate of increase in the tumor volume on day 15 (model-based estimate)” value is “significantly (p=0.02) greater in the Control group when compared to the BioE4 group” and the “mean tumor volume at day 15 (model-based estimate)” value was “significantly (p=0.0001) greater in the Control group when compared to the BioE4 group”.

Consider `CC(C)C[C@H](NC(=O)[C@H](CC(C)C)NC(=O)[C@H](CCCNC(=N)N)NC(=O)CNC(=O)CNC(=O)[C@H](CC(C)C)NC(=O)[C@H](CC(C)C)NC(=O)[C@H](CO)NC(=O)[C@H](CO)NC(=O)[C@H](C)NC(=O)[C@H](CCC(N)=O)NC(=O)CNC(=O)[C@@H](NC(=O)[C@H](C)NC(=O)CCCC[C@@H]1SC[C@@H]2NC(=O)N[C@@H]21)[C@@H](C)O)C(=O)NCC(=O)N[C@@H](CCC(N)=O)C(=O)N[C@@H](CO)C(=O)N[C@@H](C)C(=O)N[C@@H](C)C(=O)N[C@@H](CO)C(=O)N[C@@H](CS)C(=O)N[C@@H](Cc1c[nH]cn1)C(=O)N[C@@H](Cc1c[nH]cn1)C(=O)N[C@@H](C)C(N)=O` [Bio96-17] (Biotin-ATGQASSLLGGRLLGQSAASCHHA-NH2), for which, in data set [2] (Bio96-17 treatment (FIG. 15)), the Coll1A2 levels entry is reported as “significant reduction” and the SMA levels result is given as “significant reduction”.

For `CC(C)C[C@H](NC(=O)[C@H](CC(C)C)NC(=O)[C@H](CCCNC(=N)N)NC(=O)CNC(=O)CNC(=O)[C@H](CC(C)C)NC(=O)[C@H](CC(C)C)NC(=O)[C@H](CO)NC(=O)[C@H](CO)NC(=O)[C@H](C)NC(=O)[C@H](CCC(N)=O)NC(=O)CNC(=O)[C@@H](NC(=O)[C@H](C)NC(=O)[C@H](CO)NC(=O)[C@@H]1CCCN1C(=O)[C@H](C)NC(=O)[C@H](CCC(=O)O)NC(=O)[C@@H](NC(=O)[C@H](CCCNC(=N)N)NC(=O)[C@H](Cc1c[nH]c2ccccc12)NC(=O)[C@@H](NC(=O)[C@H](CCC(=O)O)NC(=O)[C@H](CS)NC(=O)[C@H](Cc1ccc(O)cc1)NC(=O)[C@H](CO)NC(=O)CCCCCNC(=O)CCCC[C@@H]1SC[C@@H]2NC(=O)N[C@@H]21)[C@@H](C)O)[C@@H](C)O)[C@@H](C)O)C(=O)NCC(=O)N[C@@H](CCC(N)=O)C(=O)N[C@@H](CO)C(=O)N[C@@H](C)C(=O)N[C@@H](C)C(=O)N[C@@H](CO)C(=O)N[C@@H](CS)C(=O)N[C@@H](Cc1c[nH]cn1)C(=O)N[C@@H](Cc1c[nH]cn1)C(=O)N[C@@H](C)C(N)=O` [BioE4-03] ({Biotin-Ahx}-SYCETWRTEAPSATGQASSLLGGRLLGQSAASCHHA-NH2), in data set [3], the Coll1A2 levels result is given as “trend towards decrease” and the SMA levels entry is reported as “trend towards decrease”. In data set [2] (10 μg/ml, 72 hours (FIG. 16)), the Coll1A2 levels entry is on record as “significant reduction” and the SMA levels entry is on record as “significant reduction”.

For `CC(C)C[C@H](NC(=O)[C@H](CC(C)C)NC(=O)[C@H](CO)NC(=O)[C@H](CO)NC(=O)[C@H](C)NC(=O)[C@H](CCC(N)=O)NC(=O)CNC(=O)[C@@H](NC(=O)[C@H](C)NC(=O)CCCC[C@@H]1SC[C@@H]2NC(=O)N[C@@H]21)[C@@H](C)O)C(N)=O` [Bio96, Biotin-NH2-ATGQASSLL-CONH2] (Biotin-ATGQASSLL-NH2), the tumor cell arrangement result in data set [4] (H&E staining, tumors from treated mice) is listed as “looser cell arrangement”. The “collagen bundles in the tumors” value in data set [4] (Masson Trichrome stain, compared to vehicle treated mice) is on record as “thinner collagen bundles”. In data set [5] (PBS control 151.1 mm^3 per day), the “mean rate of increase in the tumor volume at day 21 (model-based estimate)” value is 90.6 mm^3 per day. Moreover, the “mean tumor volume at day 21 (model-based estimate)” value in data set [5] (PBS control 1492.1 mm^3) is reported as 871.4 mm^3.
